Measurements taken from patent US8263605B2, “Modulators of muscarinic receptors” (Vertex Pharmaceutical Incorporated, priority 2006, dated 2012).

Assays:
M4 muscarinic receptor = target: T1, M4 muscarinic receptor (Homo sapiens, UniProt P08173); experiment: Functional mobilization of intracellular calcium (FLIPR), M4-CHO cells; assay type: cell-based; settings: for Emax: 100% efficacy is the maximum response obtained with the Carbachol control; for M4 Activity: CHO cells expressing M4, calcium mobilization
T1 construct: expressed in transfected cells; host or cells: CHO (M4-CHO)
T1 sequence (P08173 1-479): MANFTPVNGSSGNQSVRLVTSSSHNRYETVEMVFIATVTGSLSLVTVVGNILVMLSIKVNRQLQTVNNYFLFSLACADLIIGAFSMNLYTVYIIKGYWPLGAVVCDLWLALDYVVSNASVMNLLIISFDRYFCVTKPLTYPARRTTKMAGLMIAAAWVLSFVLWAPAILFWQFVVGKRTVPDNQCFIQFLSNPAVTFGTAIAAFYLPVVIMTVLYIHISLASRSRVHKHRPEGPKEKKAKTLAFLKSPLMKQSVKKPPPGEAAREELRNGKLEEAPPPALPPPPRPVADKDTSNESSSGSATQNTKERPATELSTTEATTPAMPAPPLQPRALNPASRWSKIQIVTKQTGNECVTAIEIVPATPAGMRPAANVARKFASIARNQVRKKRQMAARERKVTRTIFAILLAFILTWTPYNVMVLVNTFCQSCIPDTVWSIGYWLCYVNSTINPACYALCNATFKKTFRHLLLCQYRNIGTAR
Method: (§1) Functional Mobilization of Intracellular Calcium to Determine Muscarinic Receptor Activity:
(§2) CHO cells expressing muscarinic receptors (M1 to M5) are grown as monolayers in tissue culture flasks at 37° C. in a humidified atmosphere containing 5% CO2 and passaged every 3-5 days. The growth media is Dulbecco's modified eagles medium (DMEM, Gibco Cat#12430-054), containing 25 mM Hepes and supplemented with Fetal Bovine Serum (Hyclone, cat# SH30071.03), 0.1 mM of MEM non-essential amino acids (GIBCO, Cat#11140-050), 1 mM MEM Sodium Pyruvate (GIBCO Cat#11360-070) and 100 units/ml of Penicillin G and 100 μg/ml of Streptomycin (GIBCO Cat#15140-122). The recombinant muscarinic receptor cell lines are grown under antibiotic pressure with media containing 25 μg/ml zeocin and 500 μg/ml G418 (M1-CHO), 4 μg/ml puromycin, 50 μg/ml zeocin and 2.5 μg/ml blasticidin (M2 and M4-CHO) or 50 μg/ml zeocin and 4 μg/ml puromycin (M3 and M5-CHO).
(§3) Cells are harvested at 80-90% confluence using Versene (GIBCO Cat#15040-066), collected by centrifugation and seeded 18-24 hours prior to running the calcium assay at a density of 5,000-10,000 cells/well in […], clear-bottomed 384-well plates (BD Biocoat, poly-D-lysine, Cat#356663). The day of the experiment, the cells are washed with a plate washer (Bioteck Instrunents, ELX 405) using bath 1 buffer (140-mM NaCl, 4.5-mM KCl, 2-mM CaCl2, 1-mM MgCl2, 10-mM Hepes-Na, 10-mM Glucose, pH 7.4, with NaOH) containing 1 mM Probenecid. Next, the calcium dye Fluo-3 (25 μl/well of Fluo-3 AM at 4 μM, Molecular Probes F-1241, in Bath 1 buffer containing 1 mM Probenecid) is added to the 25 μl of Bath 1 remaining in each well after the plate wash and the dye is loaded at 37° C. in the tissue culture incubator for 60-90 min. The fluorescent dye is removed using the plate washer with Bath 1 containing 1 mM Probenecid, leaving 25 μl/well of this solution after the wash. Alternatively, cells can be loaded with the calcium indicator from Molecular Devices (Calcium 3 Assay Reagents, Cat # R7181) adding 5 μl of a 5× solution dye in Bath 1 containing 1 mM Probenecid (10 ml per dye flask cat# R7182 to generate a solution 20×) to 20 μl of the same buffer. After loading for 60 min, the experiment can be run without having to remove the dye.
(§4) Compounds are prepared at a 2× fold concentration in a 96-well plate (round bottom, Costar Corning cat#3656), by reconstituting the pre-spotted compounds in bath 1 containing 1 mM probenecid. The final concentration DMSO is 0.5%, and the amount of DMSO is normalized across the assay plate. To determine an agonist action of the compounds on muscarinic receptors, the reconstituted compounds are added (25 μl compound/well) to the cell assay plate (containing 25 μl/well) using the multi-channel robotic system of the FLIPR 3 Instrument (Molecular Devices, Sunnyvale, Calif.). To determine a functional inhibitory action of the compounds on muscarinic receptors, the reconstituted compounds are added (25 μl compound/well) to the assay plate and pre-incubated for 15 min prior to adding 25 μl of Carbachol at 3× the EC80 for each muscarinic subtype. Alternatively, the compounds can be co-applied simultaneously with the agonist. In both assay modes, the fluorescence is recorded for 60 sec (excitation wavelength is […] and emission wavelength 540 nm) using the FLIPR 3 instrument.
(§5) The potency, efficacy and selectivity of the muscarinic compounds were evaluated by screening the compound activity across the whole family (M1 to M5 cells). Compounds were also screened for activity on other proteins such as other GPCRs and ion channels to determine selectivity on M4 receptors.
(§6) Examples of activities and efficacies of the muscarinic compounds of formulae (I, Ia, Ib, Ic, Id, and Ie) on modulating M1 and M4 receptors are shown below in Table 4. […]

M1 muscarinic receptor = target: T2, M1 muscarinic receptor (Homo sapiens, UniProt P11229); experiment: Functional mobilization of intracellular calcium (FLIPR), M1-CHO cells; assay type: cell-based; settings: for Emax: 100% efficacy is the maximum response obtained with the Carbachol control; for M1 Activity: CHO cells expressing M1, calcium mobilization
T2 construct: expressed in transfected cells; host or cells: CHO (M1-CHO)
T2 sequence (P11229 1-460): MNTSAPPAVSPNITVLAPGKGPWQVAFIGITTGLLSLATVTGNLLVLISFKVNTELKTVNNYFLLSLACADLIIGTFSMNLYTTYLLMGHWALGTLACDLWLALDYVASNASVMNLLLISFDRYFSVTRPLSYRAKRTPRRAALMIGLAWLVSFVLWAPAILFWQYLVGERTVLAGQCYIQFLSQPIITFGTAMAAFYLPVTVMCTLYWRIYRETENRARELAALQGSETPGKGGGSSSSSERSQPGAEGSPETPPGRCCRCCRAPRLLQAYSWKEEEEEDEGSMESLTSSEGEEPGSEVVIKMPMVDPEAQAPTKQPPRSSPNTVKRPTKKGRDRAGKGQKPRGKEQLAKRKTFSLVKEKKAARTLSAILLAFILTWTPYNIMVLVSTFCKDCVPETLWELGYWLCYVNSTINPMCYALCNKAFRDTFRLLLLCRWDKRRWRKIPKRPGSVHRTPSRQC
Method: as §1, §2, §3, §4, §5, §6

| SMILES | Emax (M4 muscarinic receptor) | M4 Activity (M4 muscarinic receptor) | Emax (M1 muscarinic receptor) | M1 Activity (M1 muscarinic receptor) |
| --- | --- | --- | --- | --- |
| CC(=O)N1CCC2(CCN(C3CCN(c4cnccn4)CC3)CC2)c2ccccc21 [compound 17] | 25 to 100% | +++ (activity was measured to be less than 2.0 μM) | 25 to 100% | +++ (activity was measured to be less than 2.0 μM) |
| CC(=O)N1CCC2(CCN(C3CCN(c4cnc5ccccc5n4)CC3)CC2)c2ccccc21 [compound 18] | 25 to 100% | +++ (activity was measured to be less than 2.0 μM) | 25 to 100% | ++ (activity was measured to be from 2.0 μM to 10.0 μM) |
| CN(C)C(=O)N1CCC2(CCN(C3CCN(C(=O)OCCC#N)CC3)CC2)c2ccccc21 [compound 19] | 25 to 100% | +++ (activity was measured to be less than 2.0 μM) | < 25% | ++ (activity was measured to be from 2.0 μM to 10.0 μM) |
| CN(C)C(=O)N1CCC2(CCN(C3CCN(c4nncs4)CC3)CC2)c2ccccc21 [compound 21] | < 25% | ++ (activity was measured to be from 2.0 μM to 10.0 μM) | 25 to 100% | ++ (activity was measured to be from 2.0 μM to 10.0 μM) |
| Cc1csc(N2CCC(N3CCC4(CCN(C(=O)N(C)C)c5ccccc54)CC3)CC2)n1 [compound 22] | 25 to 100% | ++ (activity was measured to be from 2.0 μM to 10.0 μM) | 25 to 100% | ++ (activity was measured to be from 2.0 μM to 10.0 μM) |
| CC(=O)N1CCC2(CCN(C3CCN(c4nncs4)CC3)CC2)c2ccccc21 [compound 23] | 25 to 100% | ++ (activity was measured to be from 2.0 μM to 10.0 μM) | 25 to 100% | ++ (activity was measured to be from 2.0 μM to 10.0 μM) |
| CC(=O)N1CCC2(CCN(C3CCN(c4nccs4)CC3)CC2)c2ccccc21 [compound 24] | < 25% | ++ (activity was measured to be from 2.0 μM to 10.0 μM) | 25 to 100% | ++ (activity was measured to be from 2.0 μM to 10.0 μM) |
| CC(=O)N1CCC2(CCN(C3CCN(c4nc(C)cs4)CC3)CC2)c2ccccc21 [compound 25] | 25 to 100% | ++ (activity was measured to be from 2.0 μM to 10.0 μM) | 25 to 100% | ++ (activity was measured to be from 2.0 μM to 10.0 μM) |
| COC(=O)N1C2CCC1CC(N1CCC3(CCN(C(=O)N(C)C)c4ccccc43)CC1)C2 (stereo not shown) [compound 26] | 25 to 100% | +++ (activity was measured to be less than 2.0 μM) | 25 to 100% | ++ (activity was measured to be from 2.0 μM to 10.0 μM) |
| CCOC(=O)N1C2CCC1CC(N1CCC3(CCN(C(=O)N(C)C)c4ccccc43)CC1)C2 (stereo not shown) [compound 27] | 25 to 100% | +++ (activity was measured to be less than 2.0 μM) | 25 to 100% | +++ (activity was measured to be less than 2.0 μM) |
